Columns and labels:
ryegrass, Italian = test: Test E preemergence herbicide test; format: in vivo, Lolium multiflorum; parameters: key: 0 = no effect, 100 = complete control
Procedure, shortened: (§1)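 Response is a 0–100 visual rating against controls (100 = complete control), taken 21 days after preemergence treatment of seeded silt loam soil held in a greenhouse.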

wheat, winter = test: Test D pre-/postemergence herbicide test; format: in vivo, Triticum aestivum; conditions: for Plant response rating: Postemergence, Wheat, Winter, scale 0 to 100; for Plant response rating, Wheat, Winter: Preemergence, scale 0 to 100 (0 no effect, 100 complete control)
Procedure, shortened: (§2)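 Test chemicals, formulated in a non-phytotoxic solvent mixture with surfactant, are sprayed preemergence onto seeds in silt loam and postemergence onto plants of 2–18 cm. Plants are held in a controlled growth environment for 7 to 21 days, then rated visually versus controls (0–100).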

wheat, spring = test: Test D pre-/postemergence herbicide test; format: in vivo, Triticum aestivum; conditions: for Plant response rating: Postemergence, Wheat, Spring, scale 0 to 100; for Plant response rating, Wheat, Spring: Preemergence, scale 0 to 100 (0 no effect, 100 complete control)
Procedure, shortened: as §2

oat, wild = test: Test D pre-/postemergence herbicide test; format: in vivo, Avena fatua; conditions: for Plant response rating: Postemergence, Oat, Wild, scale 0 to 100; for Plant response rating, Oat, Wild: Preemergence, scale 0 to 100 (0 no effect, 100 complete control)
Procedure, shortened: as §2

chamomile = test: Test D pre-/postemergence herbicide test; format: in vivo, Matricaria inodora; conditions: for Plant response rating: Chamomile, scale 0 to 100; for Plant response rating, Chamomile: scale 0 to 100 (0 no effect, 100 complete control)
Procedure, shortened: as §2

nutsedge, yellow = test: Test E preemergence herbicide test; format: in vivo, Cyperus esculentus; parameters: key: 0 = no effect, 100 = complete control
Procedure, shortened: as §1

kochia = test: Test D pre-/postemergence herbicide test; format: in vivo, Kochia scoparia; conditions: for Plant response rating: Kochia, scale 0 to 100; for Plant response rating, Kochia: scale 0 to 100 (0 no effect, 100 complete control)
Procedure, shortened: as §2

chickweed = test: Test D pre-/postemergence herbicide test; format: in vivo, Stellaria media; conditions: for Plant response rating: Chickweed, scale 0 to 100; for Plant response rating, Chickweed: scale 0 to 100 (0 no effect, 100 complete control)
Procedure, shortened: as §2

windgrass = test: Test D pre-/postemergence herbicide test; format: in vivo, Apera spica-venti; conditions: for Plant response rating: Postemergence, Windgrass, scale 0 to 100; for Plant response rating, Windgrass: Preemergence, scale 0 to 100 (0 no effect, 100 complete control)
Procedure, shortened: as §2

velvetleaf = test: Test E preemergence herbicide test; format: in vivo, Abutilon theophrasti; parameters: key: 0 = no effect, 100 = complete control
Text: Seeds of plant species selected from corn (Zea mays), soybean (Glycine max), velvetleaf (Abutilon theophrasti), lambsquarters (Chenopodium album), wild poinsettia (Euphorbia heterophylla), pigweed, palmer (palmer pigweed, Amaranthus palmeri), waterhemp (common waterhemp, Amaranthus rudis), surinam grass (Brachiaria decumbens), crabgrass, large (large crabgrass, Digitaria sanguinalis), crabgrass, Brazil (Brazilian crabgrass, Digitaria horizontalis), panicum, fall (fall panicum, Panicum dichotomiflorum), foxtail, giant (giant foxtail, Setaria faberii), foxtail, green (green foxtail, Setaria viridis), goosegrass (Eleusine indica), johnsongrass (Sorghum halepense), ragweed (common ragweed, Ambrosia elatior), barnyardgrass (Echinochloa crus-galli), sandbur (southern sandbur, Cenchrus echinatus), arrowleaf […] rhombifolia), ryegrass, Italian (Italian ryegrass, Lolium multiflorum), dayflower, VA (Virginia dayflower, Commelina virginica), field bindweed (Convolvulus arvensis), morningglory (Ipomoea coccinea), nightshade (eastern black nightshade, Solanum ptycanthum), kochia (Kochia scoparia), nutsedge, yellow (yellow nutsedge, Cyperus esculentus), cocklebur (common cocklebur, Xanthium strumarium), smartweed (ladysthumb smartweed, Polygonum Persicaria) and beggarticks (hairy beggarticks, Bidens pilosa), were planted into a silt loam soil and treated preemergence with test chemicals formulated in a non-phytotoxic solvent mixture which included a surfactant. Treated plants and controls were maintained in a greenhouse for 21 days, after which time all species were compared to controls and visually evaluated. Plant response ratings, summarized in Table E, are based on a scale of 0 to 100 where 0 is no effect and 100 is complete control. A dash (-) response means no test result.

O=C1NCC(c2ccc(C(F)(F)F)cc2)C1C(=O)Nc1cccc(F)c1F (racemic) [Compound 202]
80: Plant response rating (chickweed; Postemergence, 125 g ai/ha) | Plant response rating (chickweed; Postemergence, 250 g ai/ha) | Plant response rating, Chickweed (chickweed; Preemergence, 62 g ai/ha)
60: Plant response rating (chamomile; Postemergence, 62 g ai/ha) | Plant response rating (chamomile; Postemergence, 250 g ai/ha) | Plant response rating, Chamomile (chamomile; Preemergence, 31 g ai/ha)
90: Plant response rating (chickweed; Preemergence, 125 g ai/ha) | Plant response rating, Windgrass (windgrass; 125 g ai/ha) | Plant response rating, Windgrass (windgrass; 250 g ai/ha)
10: Plant response rating, Wheat, Winter (wheat, winter; 62 g ai/ha) | Plant response rating (oat, wild; 62 g ai/ha) | Plant response rating (oat, wild; 125 g ai/ha) | Plant response rating (windgrass; 62 g ai/ha)
20: Plant response rating, Oat, Wild (oat, wild; 62 g ai/ha)
15: Plant response rating (oat, wild; 250 g ai/ha)
50: Plant response rating, Ryegrass, Italian (ryegrass, Italian; 250 g ai/ha)
85: Plant response rating, Kochia (kochia; Preemergence, 62 g ai/ha) | Plant response rating, Kochia (kochia; Preemergence, 31 g ai/ha) | Plant response rating (kochia; Preemergence, 125 g ai/ha) | Plant response rating (kochia; Preemergence, 250 g ai/ha) | Plant response rating, Windgrass (windgrass; 62 g ai/ha)
75: Plant response rating (chamomile; Preemergence, 125 g ai/ha) | Plant response rating (kochia; Postemergence, 125 g ai/ha) | Plant response rating (kochia; Postemergence, 250 g ai/ha) | Plant response rating (chickweed; Postemergence, 31 g ai/ha) | Plant response rating (chickweed; Postemergence, 62 g ai/ha)
40: Plant response rating, Oat, Wild (oat, wild; 250 g ai/ha) | Plant response rating, Velvetleaf (velvetleaf; 250 g ai/ha)
65: Plant response rating (chamomile; Postemergence, 125 g ai/ha) | Plant response rating, Chamomile (chamomile; Preemergence, 62 g ai/ha) | Plant response rating, Windgrass (windgrass; 31 g ai/ha)
100: Plant response rating (chamomile; Preemergence, 250 g ai/ha)
95: Plant response rating (chickweed; Preemergence, 250 g ai/ha)
25: Plant response rating, Ryegrass, Italian (ryegrass, Italian; 125 g ai/ha) | Plant response rating, Wheat, Winter (wheat, winter; 125 g ai/ha) | Plant response rating, Wheat, Winter (wheat, winter; 250 g ai/ha) | Plant response rating, Wheat, Spring (wheat, spring; 125 g ai/ha)
45: Plant response rating, Chickweed (chickweed; Preemergence, 31 g ai/ha) | Plant response rating (windgrass; 250 g ai/ha)
0: Plant response rating, Ryegrass, Italian (ryegrass, Italian; 31 g ai/ha) | Plant response rating, Ryegrass, Italian (ryegrass, Italian; 62 g ai/ha) | Plant response rating (wheat, winter; 31 g ai/ha) | Plant response rating (wheat, winter; 62 g ai/ha) | Plant response rating (wheat, winter; 125 g ai/ha) | Plant response rating (wheat, winter; 250 g ai/ha) | Plant response rating (wheat, spring; 31 g ai/ha) | Plant response rating (wheat, spring; 62 g ai/ha) | Plant response rating (wheat, spring; 125 g ai/ha) | Plant response rating, Wheat, Spring (wheat, spring; 31 g ai/ha) | Plant response rating, Nutsedge, Yellow (nutsedge, yellow; 31 g ai/ha) | Plant response rating, Nutsedge, Yellow (nutsedge, yellow; 62 g ai/ha) | Plant response rating, Nutsedge, Yellow (nutsedge, yellow; 125 g ai/ha) | Plant response rating, Nutsedge, Yellow (nutsedge, yellow; 250 g ai/ha) | Plant response rating (windgrass; 31 g ai/ha) | Plant response rating, Velvetleaf (velvetleaf; 31 g ai/ha) | Plant response rating, Velvetleaf (velvetleaf; 62 g ai/ha) | Plant response rating, Velvetleaf (velvetleaf; 125 g ai/ha)
5: Plant response rating, Wheat, Winter (wheat, winter; 31 g ai/ha) | Plant response rating (wheat, spring; 250 g ai/ha) | Plant response rating, Wheat, Spring (wheat, spring; 62 g ai/ha) | Plant response rating (oat, wild; 31 g ai/ha) | Plant response rating, Oat, Wild (oat, wild; 31 g ai/ha) | Plant response rating (chamomile; Postemergence, 31 g ai/ha)
70: Plant response rating (kochia; Postemergence, 31 g ai/ha) | Plant response rating (kochia; Postemergence, 62 g ai/ha)
35: Plant response rating, Wheat, Spring (wheat, spring; 250 g ai/ha) | Plant response rating, Oat, Wild (oat, wild; 125 g ai/ha) | Plant response rating (windgrass; 125 g ai/ha)

O=C1NCC(c2ccc(F)c(F)c2)C1C(=O)Nc1cccc(F)c1F (stereo not shown) [Compound 17, N-(2,3-difluorophenyl)-4-(3,4-difluorophenyl)-2-oxo-3-pyrrolidinecarboxamide]
0: Plant response rating, Ryegrass, Italian (ryegrass, Italian; 16 g ai/ha) | Plant response rating, Ryegrass, Italian (ryegrass, Italian; 31 g ai/ha) | Plant response rating, Ryegrass, Italian (ryegrass, Italian; 62 g ai/ha) | Plant response rating, Ryegrass, Italian (ryegrass, Italian; 125 g ai/ha) | Plant response rating, Ryegrass, Italian (ryegrass, Italian; 250 g ai/ha) | Plant response rating (wheat, winter; 16 g ai/ha) | Plant response rating (wheat, winter; 31 g ai/ha) | Plant response rating (wheat, winter; 62 g ai/ha) | Plant response rating (wheat, winter; 125 g ai/ha) | Plant response rating (wheat, winter; 250 g ai/ha) | Plant response rating (wheat, spring; 16 g ai/ha) | Plant response rating (wheat, spring; 31 g ai/ha) | Plant response rating (wheat, spring; 62 g ai/ha) | Plant response rating (wheat, spring; 125 g ai/ha) | Plant response rating (wheat, spring; 250 g ai/ha) | Plant response rating (oat, wild; 16 g ai/ha) | Plant response rating (oat, wild; 31 g ai/ha) | Plant response rating (oat, wild; 62 g ai/ha) | Plant response rating (oat, wild; 125 g ai/ha) | Plant response rating (oat, wild; 250 g ai/ha) | Plant response rating (chamomile; Postemergence, 16 g ai/ha) | Plant response rating (chamomile; Postemergence, 31 g ai/ha) | Plant response rating (chamomile; Postemergence, 62 g ai/ha) | Plant response rating (chamomile; Postemergence, 125 g ai/ha) | Plant response rating (chamomile; Postemergence, 250 g ai/ha) | Plant response rating, Nutsedge, Yellow (nutsedge, yellow; 16 g ai/ha) | Plant response rating, Nutsedge, Yellow (nutsedge, yellow; 31 g ai/ha) | Plant response rating, Nutsedge, Yellow (nutsedge, yellow; 62 g ai/ha) | Plant response rating, Nutsedge, Yellow (nutsedge, yellow; 125 g ai/ha) | Plant response rating (kochia; Postemergence, 16 g ai/ha) | Plant response rating (kochia; Postemergence, 31 g ai/ha) | Plant response rating (chickweed; Postemergence, 16 g ai/ha) | Plant response rating (chickweed; Postemergence, 31 g ai/ha) | Plant response rating (chickweed; Postemergence, 62 g ai/ha) | Plant response rating (windgrass; 16 g ai/ha) | Plant response rating (windgrass; 31 g ai/ha) | Plant response rating (windgrass; 62 g ai/ha) | Plant response rating (windgrass; 125 g ai/ha) | Plant response rating (windgrass; 250 g ai/ha) | Plant response rating, Velvetleaf (velvetleaf; 16 g ai/ha) | Plant response rating, Velvetleaf (velvetleaf; 31 g ai/ha) | Plant response rating, Velvetleaf (velvetleaf; 62 g ai/ha) | Plant response rating, Velvetleaf (velvetleaf; 125 g ai/ha) | Plant response rating, Velvetleaf (velvetleaf; 250 g ai/ha)
15: Plant response rating, Nutsedge, Yellow (nutsedge, yellow; 250 g ai/ha)
30: Plant response rating (chickweed; Postemergence, 250 g ai/ha)
40: Plant response rating (kochia; Postemergence, 250 g ai/ha)
25: Plant response rating (chickweed; Postemergence, 125 g ai/ha)
20: Plant response rating (kochia; Postemergence, 62 g ai/ha) | Plant response rating (kochia; Postemergence, 125 g ai/ha)
